Consider three compounds from patent US20230085307A1, “PYRIDAZINONE COMPOUND AND HERBICIDE” (NISSAN CHEMICAL CORPORATION, priority 2019, published 2023).

The test system of one test is blackgrass. The experiment in a line: Test Example 5: herbicidal effect by foliage application, plastic box (Table 20, symbol J). The class given is in vivo, blackgrass (Alopecurus myosuroides). The following applies: for J: blackgrass, herbicidal effect: foliage application, three weeks after application. Put shortly: (§1)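 Sow seeds spot-wise in sterilized diluvial soil; cover with ~1.5 cm soil. Grow 14 days in greenhouse, 25° C. to 30° C. Spray foliage with emulsion diluted to predetermined amount. Rate effect after 3 weeks.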

The test system of the next test is persian speedwell. Description: Test Example 5: herbicidal effect by foliage application, plastic box (Table 20, symbol R). Type of test: in vivo, Persian speedwell (Veronica persica). The following applies: for R: persian speedwell, herbicidal effect: foliage application, three weeks after application. Put shortly:
as §1

For the next test, the system named is southern crabgrass. The experiment in a line: Test Example 5: herbicidal effect by foliage application, plastic box (Table 20, symbol F). Type of test: in vivo, southern crabgrass (Digitaria ciliaris). The following applies: for F: southern crabgrass, herbicidal effect: foliage application, three weeks after application. In a few lines:
as §1

The test system of another test is lambsquarters. Description: Test Example 5: herbicidal effect by foliage application, plastic box (Table 20, symbol O). The following applies: for O: lambsquarters, herbicidal effect: foliage application, three weeks after application. The class given is in vivo, lambsquarters (Chenopodium album). In a few lines:
as §1

The subject of test [1] is barnyard grass. The experiment in a line: Test Example 3: herbicidal effect by foliage application, Wagner pot (Table 18, symbol H). The class given is in vivo, barnyard grass (Echinochloa crus-galli). In a few lines: (§2)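 Plants were sown in alluvial soil held under 0.1–0.5 cm standing water and grown 14 days in a greenhouse at 25–30 °C. An emulsifiable formulation, water-diluted to the set dose, was then sprayed onto the foliage, and effects were scored three weeks later using previously defined criteria.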

The test system of the next test is wild oat. Description: Test Example 5: herbicidal effect by foliage application, plastic box (Table 20, symbol I). Type of test: in vivo, wild oat (Avena fatua). The following applies: for I: wild oat, herbicidal effect: foliage application, three weeks after application. In a few lines:
as §1

In a further test the test system is redroot pigweed. The experiment in a line: Test Example 5: herbicidal effect by foliage application, plastic box (Table 20, symbol N). Conditions: for N: redroot pigweed, herbicidal effect: foliage application, three weeks after application. Type of test: in vivo, redroot pigweed (Amaranthus retroflexus). Put shortly: as §1
The next test has as its system rice flat sedge. Description: Test Example 3: herbicidal effect by foliage application, Wagner pot (Table 18, symbol E). The class given is in vivo, rice flat sedge (Cyperus iria). Put shortly: as §2
For the next test, the system named is green foxtail. Description: Test Example 5: herbicidal effect by foliage application, plastic box (Table 20, symbol G). The class given is in vivo, green foxtail (Setaria viridis). Conditions: for G: green foxtail, herbicidal effect: foliage application, three weeks after application. Put shortly: as §1
The test system of a further test is Chinese sprangletop. The experiment in a line: Test Example 3: herbicidal effect by foliage application, Wagner pot (Table 18, symbol D). The class given is in vivo, chinese sprangletop (Leptochloa chinensis). Put shortly:
as §2

Another test has as its system windgrass. Description: Test Example 5: herbicidal effect by foliage application, plastic box (Table 20, symbol L). The class given is in vivo, windgrass (Apera spica-venti). Conditions: for L: windgrass, herbicidal effect: foliage application, three weeks after application. In a few lines: as §1
For test [2], the system named is barnyard grass. Description: Test Example 5: herbicidal effect by foliage application, plastic box (Table 20, symbol H). The following applies: for H: barnyard grass, herbicidal effect: foliage application, three weeks after application. The class given is in vivo, barnyard grass (Echinochloa crus-galli). Put shortly: as §1
The subject of a further test is false cleavers. The experiment in a line: Test Example 5: herbicidal effect by foliage application, plastic box (Table 20, symbol Q). The class given is in vivo, false cleavers (Galium spurium). The following applies: for Q: false cleavers, herbicidal effect: foliage application, three weeks after application. An excerpt:
[Test Example 5] Herbicidal Effect Test by Foliage Application
Sterilized diluvial soil was placed in a plastic box having a length of 21 cm, a width of 13 cm, and a depth of 7 cm. The seeds of each of southern crabgrass, green foxtail, barnyard grass, wild oat, blackgrass, Italian ryegrass, windgrass, velvetleaf, redroot pigweed, lambsquarters, chickweed, false cleavers, persian speedwell, corn, soybean, rice, wheat, beet, and rapeseed were sowed in a spot-like manner and covered with the soil having a thickness of about 1.5 cm. Thereafter, the plants were grown in a greenhouse at 25° C. to 30° C. After 14-day growth of the plants, the emulsion agent of the compound of the present invention prepared according to Formulation Example 2 was diluted with water so as to achieve a predetermined herbicide amount, and the diluted emulsion agent was uniformly applied to a foliage part with a small-sized spray. Three weeks after the herbicide application, the effect of the herbicide on each plant was evaluated according to the criteria of Test Example 1.

Another test concerns chickweed. The experiment in a line: Test Example 5: herbicidal effect by foliage application, plastic box (Table 20, symbol P). The class given is in vivo, common chickweed (Stellaria media). The following applies: for P: chickweed, herbicidal effect: foliage application, three weeks after application. In a few lines:
as §1

The next test deals with Italian ryegrass. The experiment in a line: Test Example 5: herbicidal effect by foliage application, plastic box (Table 20, symbol K). Type of test: in vivo, Italian ryegrass (Lolium multiflorum). The following applies: for K: Italian ryegrass, herbicidal effect: foliage application, three weeks after application. Put shortly: as §1
The next test concerns velvetleaf. Description: Test Example 5: herbicidal effect by foliage application, plastic box (Table 20, symbol M). Type of test: in vivo, velvetleaf (Abutilon theophrasti). Conditions: for M: velvetleaf, herbicidal effect: foliage application, three weeks after application. Put shortly: as §1
Where [3] appears, read: amount of applied herbicide 320 g/ha, foliage application after 14-day growth, evaluated three weeks after application.

On to `Cc1nn(C)c(=O)c(-c2c(-c3ccc(Oc4ccccc4)cc3)sc3ccccc23)c1O` [1-149], for which the “J: blackgrass, herbicidal effect” value in the test with blackgrass (AAH 320 g/ha) is reported as 0 (Herbicidal rate of 5% or less (almost no effect)). Moreover, the “R: persian speedwell, herbicidal effect” value with persian speedwell (AAH 320 g/ha) was 5 (Herbicidal rate of 90% or more (almost completely withered)). In the test on southern crabgrass (AAH 320 g/ha), the “F: southern crabgrass, herbicidal effect” value is 3 (Herbicidal rate of 40% or more and less than 70%). Further, the “O: lambsquarters, herbicidal effect” value in the test on lambsquarters (AAH 320 g/ha) is 4 (Herbicidal rate of 70% or more and less than 90%). Also, the “herbicidal effect on H (barnyard grass), rating 0-5” value in the test on barnyard grass [1] (320 g/ha) was 3 (Herbicidal rate of 40% or more and less than 70%). Moreover, in the test on wild oat (AAH 320 g/ha), the “I: wild oat, herbicidal effect” value is recorded as 0 (Herbicidal rate of 5% or less (almost no effect)). Also, the “N: redroot pigweed, herbicidal effect” value with redroot pigweed (AAH 320 g/ha) is reported as 5 (Herbicidal rate of 90% or more (almost completely withered)). Moreover, the “herbicidal effect on E (rice flat sedge), rating 0-5” value in the test with rice flat sedge (320 g/ha) is given as 5 (Herbicidal rate of 90% or more (almost completely withered)). Also, in the test on green foxtail (AAH 320 g/ha), the “G: green foxtail, herbicidal effect” value was 4 (Herbicidal rate of 70% or more and less than 90%). For the same compound, the “herbicidal effect on D (Chinese sprangletop), rating 0-5” value with Chinese sprangletop (320 g/ha) is 3 (Herbicidal rate of 40% or more and less than 70%). Also, the “L: windgrass, herbicidal effect” value in the test on windgrass (AAH 320 g/ha) is 0 (Herbicidal rate of 5% or less (almost no effect)). In the test with barnyard grass [2] (AAH 320 g/ha), the “H: barnyard grass, herbicidal effect” value is 3 (Herbicidal rate of 40% or more and less than 70%). The “Q: false cleavers, herbicidal effect” value in the test with false cleavers (AAH 320 g/ha) is on record as 5 (Herbicidal rate of 90% or more (almost completely withered)). The “P: chickweed, herbicidal effect” value in the test with chickweed (AAH 320 g/ha) was 3 (Herbicidal rate of 40% or more and less than 70%). Besides, the “K: Italian ryegrass, herbicidal effect” value in the test on Italian ryegrass (AAH 320 g/ha) is 0 (Herbicidal rate of 5% or less (almost no effect)). Moreover, the “M: velvetleaf, herbicidal effect” value with velvetleaf (AAH 320 g/ha) is 2 (Herbicidal rate of 20% or more and less than 40%).
Turning to `CCSc1ccccc1-c1sc2c(C)cccc2c1-c1c(O)c(C)nn(C)c1=O` [4-120], the “Herbicidal effect by foliage application, J: blackgrass” value with blackgrass (setting [3]) is given as 0 (Herbicidal rate of 5% or less (almost no effect)). Also, in the test with persian speedwell (setting [3]), the “Herbicidal effect by foliage application, R: persian speedwell” value is listed as 5 (Herbicidal rate of 90% or more (almost completely withered)). The “Herbicidal effect by foliage application, F: southern crabgrass” value in the test on southern crabgrass (setting [3]) was 0 (Herbicidal rate of 5% or less (almost no effect)). The “Herbicidal effect by foliage application, O: lambsquarters” value in the test with lambsquarters (setting [3]) is 0 (Herbicidal rate of 5% or less (almost no effect)). For the same compound, the “herbicidal effect on barnyard grass (H)” value in the test with barnyard grass [1] (320 g/ha) is 2 (Herbicidal rate of 20% or more and less than 40%). In addition, in the test with wild oat (setting [3]), the “Herbicidal effect by foliage application, I: wild oat” value was 0 (Herbicidal rate of 5% or less (almost no effect)). The “Herbicidal effect by foliage application, N: redroot pigweed” value in the test with redroot pigweed (setting [3]) is on record as 0 (Herbicidal rate of 5% or less (almost no effect)). The “herbicidal effect on rice flat sedge (E)” value in the test with rice flat sedge (320 g/ha) was 2 (Herbicidal rate of 20% or more and less than 40%). Also, the “Herbicidal effect by foliage application, G: green foxtail” value in the test on green foxtail (setting [3]) is listed as 0 (Herbicidal rate of 5% or less (almost no effect)). Moreover, the “herbicidal effect on Chinese sprangletop (D)” value with Chinese sprangletop (320 g/ha) was 3 (Herbicidal rate of 40% or more and less than 70%). Moreover, in the test on windgrass (setting [3]), the “Herbicidal effect by foliage application, L: windgrass” value is on record as 0 (Herbicidal rate of 5% or less (almost no effect)). Besides, the “Herbicidal effect by foliage application, H: barnyard grass” value in the test with barnyard grass [2] (setting [3]) is 0 (Herbicidal rate of 5% or less (almost no effect)). Also, the “Herbicidal effect by foliage application, Q: false cleavers” value with false cleavers (setting [3]) is reported as 0 (Herbicidal rate of 5% or less (almost no effect)). Besides, the “Herbicidal effect by foliage application, P: chickweed” value in the test on chickweed (setting [3]) is listed as 5 (Herbicidal rate of 90% or more (almost completely withered)). For the same compound, the “Herbicidal effect by foliage application, K: Italian ryegrass” value in the test on Italian ryegrass (setting [3]) is 0 (Herbicidal rate of 5% or less (almost no effect)). Besides, the “Herbicidal effect by foliage application, M: velvetleaf” value in the test with velvetleaf (setting [3]) is 0 (Herbicidal rate of 5% or less (almost no effect)).
Turning to `Cc1nn(C)c(=O)c(-c2c(-c3cc4c(cc3Cl)OCCO4)sc3ccccc23)c1O` [1-095], in the test with blackgrass (AAH 197 g/ha), the “J: blackgrass, herbicidal effect” value is on record as 0 (Herbicidal rate of 5% or less (almost no effect)). Also, the “R: persian speedwell, herbicidal effect” value in the test on persian speedwell (AAH 197 g/ha) is 4 (Herbicidal rate of 70% or more and less than 90%). The “F: southern crabgrass, herbicidal effect” value in the test on southern crabgrass (AAH 197 g/ha) is listed as 0 (Herbicidal rate of 5% or less (almost no effect)). In addition, the “O: lambsquarters, herbicidal effect” value with lambsquarters (AAH 197 g/ha) was 0 (Herbicidal rate of 5% or less (almost no effect)). Moreover, in the test with barnyard grass [1] (197 g/ha), the “herbicidal effect on H (barnyard grass), rating 0-5” value is 4 (Herbicidal rate of 70% or more and less than 90%). The “I: wild oat, herbicidal effect” value in the test on wild oat (AAH 197 g/ha) is reported as 0 (Herbicidal rate of 5% or less (almost no effect)). Further, in the test on redroot pigweed (AAH 197 g/ha), the “N: redroot pigweed, herbicidal effect” value is 0 (Herbicidal rate of 5% or less (almost no effect)). In addition, the “herbicidal effect on E (rice flat sedge), rating 0-5” value with rice flat sedge (197 g/ha) was 1 (Herbicidal rate of 5% or more and less than 20%). Also, in the test on green foxtail (AAH 197 g/ha), the “G: green foxtail, herbicidal effect” value was 0 (Herbicidal rate of 5% or less (almost no effect)). Also, the “herbicidal effect on D (Chinese sprangletop), rating 0-5” value in the test with Chinese sprangletop (197 g/ha) is on record as 0 (Herbicidal rate of 5% or less (almost no effect)). In the test with windgrass (AAH 197 g/ha), the “L: windgrass, herbicidal effect” value is 0 (Herbicidal rate of 5% or less (almost no effect)). Also, in the test with barnyard grass [2] (AAH 197 g/ha), the “H: barnyard grass, herbicidal effect” value is 0 (Herbicidal rate of 5% or less (almost no effect)). Besides, in the test on false cleavers (AAH 197 g/ha), the “Q: false cleavers, herbicidal effect” value is 3 (Herbicidal rate of 40% or more and less than 70%). For the same compound, the “P: chickweed, herbicidal effect” value with chickweed (AAH 197 g/ha) is 3 (Herbicidal rate of 40% or more and less than 70%). Moreover, in the test with Italian ryegrass (AAH 197 g/ha), the “K: Italian ryegrass, herbicidal effect” value is on record as 0 (Herbicidal rate of 5% or less (almost no effect)). For the same compound, the “M: velvetleaf, herbicidal effect” value in the test on velvetleaf (AAH 197 g/ha) was 0 (Herbicidal rate of 5% or less (almost no effect)).
